The text below walks through data of patent US9067898B1, “Isothiazole derivatives as GPR120 agonists for the treatment of type II diabetes” (Janssen Pharmaceutica NV, priority 2014, dated 2015).

Assay [1] addresses T1, Human GPR120 short form (Homo sapiens, UniProt Q5NUL3).
T1 construct: expressed in transfected cells
T1 sequence (Q5NUL3 1-361): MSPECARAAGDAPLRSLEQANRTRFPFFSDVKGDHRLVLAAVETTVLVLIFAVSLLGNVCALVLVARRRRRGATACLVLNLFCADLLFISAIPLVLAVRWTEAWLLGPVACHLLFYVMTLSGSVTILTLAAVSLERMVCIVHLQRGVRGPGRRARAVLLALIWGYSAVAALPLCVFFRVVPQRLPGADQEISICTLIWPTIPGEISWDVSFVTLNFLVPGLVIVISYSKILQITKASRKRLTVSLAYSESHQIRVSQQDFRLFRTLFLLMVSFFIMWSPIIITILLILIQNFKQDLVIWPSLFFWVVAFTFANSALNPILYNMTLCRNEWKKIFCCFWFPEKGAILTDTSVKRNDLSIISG
Nature of the assay: Human GPR120 calcium flux assay (FLIPR), Procedure Calcium B. The format is cell-based. The settings on record: HEK-293 cells expressing human GPR120 short form, 4200 cells/well; read-out: GPR120 Ca2+ Assay B EC50. The source says: This in vitro assay serves to assess test compound agonist activity against the short splice variant (SVS with Accession number NM_001195755.1 confirmed by sequencing data) of the GPR120 receptor. The Human Short splice variant #2 (NM_001195755.1) is missing an in-frame coding exon compared to variant 1 (the Human Long splice variant NM_181745.3), resulting in a shorter isoform (GPR120-S) lacking a 16 aa protein segment compared to isoform GPR120-L. The assay platform utilizes HEK-293 cells stably transfected to express the Human GPR120 short form. These cells are first loaded with the Ca^+2 sensitive dye, Fluo-4 NW. Upon stimulation, intracellular released Ca^+2 can bind to the dye and alter its fluorescence intensity. This increase in fluorescence signal, and thus the flux in intracellular [Ca^2+], is detected and quantitated by fluorescence imaging using a FLIPR reader. The effect of the agonist is measured as a function of concentration and used to calculate an EC50 based upon a response curve.
In this procedure 4200 cells/well were employed.
A Human GPR120 clone (Genbank accession number NM_001195755.1) was placed into the pcDNA3.1 mammalian expression vector carrying the neomycin resistance gene. A stable mammalian cell was generated by placing the above clone into a HEK293 background. Clonal cells responding to long chain fatty acids had expression levels of GPR120 confirmed by RT-qPCR. Human HEK-GPR120 cells were cultured in Dulbecco's Modified Eagle's Medium (DMEM)/F12 medium supplemented with 10% fetal bovine serum (FBS), 1% L-Glutamine and 1% penicillin/streptomycin and 0.5 mg/ml G-418. Cells were split 2 times a week to keep the cells in the log-phase growth.
In preparation for the assay, HEK cells stably transfected with Human GPR120 (2.5K cells per well in 25 uL growth medium) were seeded into 384-well plates and then incubated overnight (37° C., 5% CO2). The next day, the media was changed to 20 μL assay buffer and the cell starved for 1 h at 37° C. The dye loading solution (2× dye) was prepared using 10 mL assay buffer, 100 μL of 250 mM probenecid, 1 bottle of Component A, and 20 μl of dye in DMSO. Twenty μL of the 2× dye loading buffer was then added to each well. The plates were incubated at 37° C. for 30 min, then at room temperature for an additional 15 minutes, before performing the assay on FLIPR. Test compounds were prepared in assay buffer (2 uL of cpd+198 uL assay buffer, final DMSO in assay plate is 0.2%) at the desired concentration, more particularly at 100, 50, 25, 12.5, 6.25, 3.125, 1.562, 0.781, 0.391, 0.195, 0.098, 0.049, 0.024 and 0.012 μM.
The assay was performed on a FLIPR plate reader using the following parameters. Baseline was read for 10 seconds at 1 sec intervals. The program was set to transfer 10 μL of ligand from compound plate to cell plate after baseline reading. Aspiration was executed at: 10 μL/sec speed, 4.6 μL height; Dispensing was executed at: 30 μL/sec speed, 45 μL height. After compound addition, each well was read for 300 sec, with measurements collected at 1 sec intervals.
The kinetic data from the FLIPR was based upon a 5 minute window for data collection. The fluorescence of each sample well was used for individual calculations of a normalized RFU value, which was defined as maximum response minus the minimum response. The normalized fluorescence reading (RFU) was calculated as follows: RFU=Fmax−Fmin The data were fitted to a sigmoidal dose-response curve with a variable Hill slope (<2) using nonlinear regression with GraphPad Prism 5.0 to calculate the EC50 values. The Fitting Equation was: Y=Bottom+(Top−Bottom)/(1+10^((Log EC50−X)*HillSlope)), where X is the log of the concentration and Y is the response.
Background: Calcium assays in cells follow changes in intracellular calcium, usually with a dye or a luminescent sensor.

For assay [2], the target named is T2, short form of the GPR120 receptor (GPR120S) (Homo sapiens, UniProt Q5NUL3).
T2 construct: host or cells: PathHunter CHO-K1 GPR120S β-Arrestin Cell Line
Nature of the assay: Human GPR120 DiscoveRx PathHunter Beta-Arrestin assay, Procedure β-arrestin B. The format is cell-based. The following applies: PathHunter CHO-K1 GPR120S β-Arrestin cell line, 5000 cells/well, read-out: hGPR120 β-arrestin B EC50. The essentials: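 PathHunter CHO-K1 β-arrestin cells expressed long-form GPR120 (Procedure A, 3000 cells/well) or short-form GPR120 (Procedure B, 5000 cells/well). Compounds were serially diluted from 25 µM and incubated 90 min at 37 °C in HBSS/20 mM HEPES/0.1% BSA, pH 7.4. Luminescence was read after 60 min detection at RT; EC50 comes from % activity versus positive control, Hill slope fixed at 1.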

T2 sequence (P32121 whole entry partner, one chain of several): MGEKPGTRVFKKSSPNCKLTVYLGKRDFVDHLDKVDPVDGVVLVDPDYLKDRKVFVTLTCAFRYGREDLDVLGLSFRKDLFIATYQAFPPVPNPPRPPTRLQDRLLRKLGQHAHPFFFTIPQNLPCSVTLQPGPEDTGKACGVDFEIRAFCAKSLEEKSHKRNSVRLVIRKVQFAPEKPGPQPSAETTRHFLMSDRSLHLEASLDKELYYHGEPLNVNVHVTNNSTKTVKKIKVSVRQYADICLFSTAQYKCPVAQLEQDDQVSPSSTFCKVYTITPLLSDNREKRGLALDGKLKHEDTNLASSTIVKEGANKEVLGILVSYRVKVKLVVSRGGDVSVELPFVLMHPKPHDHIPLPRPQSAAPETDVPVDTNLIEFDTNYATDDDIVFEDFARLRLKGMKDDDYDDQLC

As usually defined, the EC50 is the concentration needed to bring the measured effect to its halfway point. As to `N#Cc1ccc(-c2nsc(C(F)(F)F)c2COc2c(F)cc(CCC(=O)O)cc2F)cc1` [Cpd 261, 3-(4-{[3-(4-Cyanophenyl)-5-(trifluoromethyl)isothiazol-4-yl]methoxy}-3,5-difluorophenyl)propanoic acid], the EC50 was determined as 672 nM in assay [1] and 332 nM in assay [2].

Turning to `CC(Cc1ccc(OCc2c(-c3ncc(Cl)cc3F)nsc2C(F)(F)F)c(F)c1)C(=O)O` (stereo not drawn) [Cpd 266, 3-(4-{[3-(5-Chloro-3-fluoropyridin-2-yl)-5-(trifluoromethyl)isothiazol-4-yl]methoxy}-3-fluorophenyl)-2-methylpropanoic acid], the EC50 in assay [1] is 289 nM; in assay [2], 982 nM.

On to `Cc1c(CCC(=O)O)ccc(OCc2c(-c3ccc(C#N)cc3)nsc2C(F)(F)F)c1C` [Cpd 264, 3-(4-{[3-(4-Cyanophenyl)-5-(trifluoromethyl)isothiazol-4-yl]methoxy}-2,3-dimethylphenyl)propanoic acid], for which the EC50 was 379 nM in assay [1] and 667 nM in assay [2].

In the case of `O=C(O)CCc1cc(F)c(OCc2c(-c3ccc(Cl)cn3)nsc2C(F)(F)F)c(F)c1` [Cpd 270, 3-(4-{[3-(5-Chloropyridin-2-yl)-5-(trifluoromethyl)isothiazol-4-yl]methoxy}-3,5-difluorophenyl)propanoic acid], the EC50 in assay [1] came out at 108 nM; in assay [2], 246 nM.

For the molecule `Cc1cc(OCc2c(-c3ccc(Cl)cc3)nsc2C(F)(F)F)c(F)cc1CCCO` [Cpd 63, 3-(4-((3-(4-chlorophenyl)-5-(trifluoromethyl)isothiazol-4-yl)methoxy)-5-fluoro-2-methylphenyl)propan-1-61], the EC50 stood at 200 nM in assay [1] and 122 nM in assay [2].

`Cc1c(CCC(=O)O)ccc(OCc2c(-c3cnc(Cl)s3)nsc2C(F)(F)F)c1C` [Cpd 269, 3-(4-{[3-(2-Chloro-1,3-thiazol-5-yl)-5-(trifluoromethyl)isothiazol-4-yl]methoxy}-2,3-dimethylphenyl)propanoic acid]: the EC50 in assay [1] was determined as 194 nM; in assay [2] it was 676 nM.

For the molecule `COc1ccc(-c2nsc(C(F)(F)F)c2COc2c(F)cc(CCC(=O)O)cc2F)nc1` [Cpd 271, 3-(3,5-Difluoro-4-{[3-(5-methoxypyridin-2-yl)-5-(trifluoromethyl)isothiazol-4-yl]methoxy}phenyl)propanoic acid], the EC50 in assay [1] is 242 nM; in assay [2], 325 nM.

With `CCc1ccc(-c2nsc(C(F)(F)F)c2COc2c(F)cc(CCC(=O)O)cc2F)nc1` [Cpd 273, 3-(4-{[3-(5-Ethylpyridin-2-yl)-5-(trifluoromethyl)isothiazol-4-yl]methoxy}-3,5-difluorophenyl)propanoic acid], the EC50 stood at 427 nM in assay [1] and 721 nM in assay [2].

For `CC(Cc1cc(F)c(OCc2c(-c3ncc(Cl)cc3F)nsc2C(F)(F)F)c(F)c1)C(=O)O` (stereo not drawn) [Cpd 265, 3-(4-{[3-(5-Chloro-3-fluoropyridin-2-yl)-5-(trifluoromethyl)isothiazol-4-yl]methoxy}-3,5-difluorophenyl)-2-methylpropanoic acid], the EC50 in assay [1] stood at 248 nM; in assay [2], 527 nM.
